Usually IC50 stands for the concentration needed to halve the response being measured.

Chain of IgE-Tb / sFcεRIα-Y131A-AF488 (P01854 whole entry N146Q/N252Q): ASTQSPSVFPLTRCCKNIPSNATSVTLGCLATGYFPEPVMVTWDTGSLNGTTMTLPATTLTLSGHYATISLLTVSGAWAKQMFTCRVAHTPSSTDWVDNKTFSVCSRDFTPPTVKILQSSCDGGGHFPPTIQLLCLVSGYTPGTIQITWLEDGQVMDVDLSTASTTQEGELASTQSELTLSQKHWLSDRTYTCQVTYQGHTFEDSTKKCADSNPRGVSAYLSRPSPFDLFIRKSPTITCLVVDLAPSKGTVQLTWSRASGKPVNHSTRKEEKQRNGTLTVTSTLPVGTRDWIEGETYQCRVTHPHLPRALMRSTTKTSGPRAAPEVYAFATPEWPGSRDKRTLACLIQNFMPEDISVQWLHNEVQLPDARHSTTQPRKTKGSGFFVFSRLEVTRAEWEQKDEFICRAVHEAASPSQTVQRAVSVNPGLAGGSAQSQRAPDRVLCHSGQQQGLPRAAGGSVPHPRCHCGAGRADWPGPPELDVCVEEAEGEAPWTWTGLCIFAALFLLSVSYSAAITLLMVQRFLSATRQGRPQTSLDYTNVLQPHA

For this experiment, the target named is IgE-Tb / sFcεRIα-Y131A-AF488 (Homo sapiens, UniProt P01854, N146Q/N252Q). As to the kind of experiment: IgE-Tb / sFcεRIα-Y131A-AF488 FRET assay (protocol for examples 234 to 501). It counts as binding. The settings on record: examples 234 to 501: compound with IgE-Tb 30 minutes before sFcεRIα-Y131A-AF488, incubated 18 hours at room temperature; read-out: Y131A FRET IC50 range. The method, boiled down:
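Compounds (10-point 3-fold series, top usually 10 μM, 2% DMSO) preincubated 30 min with 5 nM IgE-Tb, then 25 nM sFcεRIα-Y131A-AF488 added; 18 h at room temperature in the dark. TR-FRET ratio 520/490 nm after 337 nm excitation, background-subtracted; IC50 by four-parameter logistic fit.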
In the case of `Cc1nnccc1Nc1nncn1[C@H]1CCc2sc(NC(=O)C3CC3)c(C(=O)NCC3CC3)c2C1` [Example 304, (5S)-2-(cyclopropanecarbonylamino)-N-(cyclopropylmethyl)-5-[3-[(3-methylpyridazin-4-yl)amino]-1,2,4-triazol-4-yl]-4,5,6,7-tetrahydrobenzothiophene-3-carboxamide], the concentration for half-maximal inhibition (IC50) was below 1000 nM.
For `Cn1nc(Cl)cc1Nc1nncn1[C@H]1CCc2sc(NC(=O)C3CC3)c(C(=O)NCC3CC3)c2C1` [Example 305, (5S)-5-[3-[(5-chloro-2-methyl-pyrazol-3-yl)amino]-1,2,4-triazol-4-yl]-2-(cyclopropanecarbonylamino)-N-(cyclopropylmethyl)-4,5,6,7-tetrahydrobenzothiophene-3-carboxamide] the value was below 1000 nM; for `C[C@@H]1C[C@@H]1C(=O)Nc1sc2c(c1C(=O)NCC1CC1)C[C@@H](n1cnnc1Nc1cc(OC(F)F)nn1C)CC2` [Example 306, (5S)—N-(cyclopropylmethyl)-5-[3-[[5-(difluoromethoxy)-2-methyl-pyrazol-3-yl]amino]-1,2,4-triazol-4-yl]-2-[[(1S,2R)-2-methylcyclopropanecarbonyl]amino]-4,5,6,7-tetrahydrobenzothiophene-3-carboxamide], below 1000 nM; for `Cc1nscc1Nc1nncn1[C@H]1CCc2sc(NC(=O)C3CC3)c(C(=O)NCC3CC3)c2C1` [Example 307, (5S)-2-(cyclopropanecarbonylamino)-N-(cyclopropylmethyl)-5-[3-[(3-methylisothiazol-4-yl)amino]-1,2,4-triazol-4-yl]-4,5,6,7-tetrahydrobenzothiophene-3-carboxamide], below 1000 nM.
In the case of `Cc1nocc1Nc1nncn1[C@H]1CCc2sc(NC(=O)C3CC3)c(C(=O)NCC3CC3)c2C1` [Example 308, (5S)-2-(cyclopropanecarbonylamino)-N-(cyclopropylmethyl)-5-[3-[(3-methylisoxazol-4-yl)amino]-1,2,4-triazol-4-yl]-4,5,6,7-tetrahydrobenzothiophene-3-carboxamide] it was below 1000 nM; in that of `Cn1nc(OCC2CC2)cc1Nc1nncn1[C@H]1CCc2sc(NC(=O)[C@H]3C[C@@H]3F)c(C(=O)NCC3CC3)c2C1` [Example 309, (5S)-5-[3-[[5-(cyclopropylmethoxy)-2-methyl-pyrazol-3-yl]amino]-1,2,4-triazol-4-yl]-N-(cyclopropylmethyl)-2-[[(1R,2S)-2-fluorocyclopropanecarbonyl]amino]-4,5,6,7-tetrahydrobenzothiophene-3-carboxamide], below 1000 nM.
For `CCOc1cc(Nc2nncn2[C@H]2CCc3sc(NC(=O)[C@H]4C[C@@H]4F)c(C(=O)NCC4CC4)c3C2)n(C)n1` [Example 310, (5S)—N-(cyclopropylmethyl)-5-[3-[(5-ethoxy-2-methyl-pyrazol-3-yl)amino]-1,2,4-triazol-4-yl]-2-[[(1R,2S)-2-fluorocyclopropanecarbonyl]amino]-4,5,6,7-tetrahydrobenzothiophene-3-carboxamide], the concentration for half-maximal inhibition (IC50) is below 1000 nM.
Take `Cn1nc(C(F)(F)F)cc1Nc1nncn1[C@H]1CCc2sc(NC(=O)[C@H]3C[C@H]3F)c(C(=O)NCC3CC3)c2C1` [Example 312, (5S)—N-(cyclopropylmethyl)-2-[[(1R,2R)-2-fluorocyclopropanecarbonyl]amino]-5-[3-[[2-methyl-5-(trifluoromethyl)pyrazol-3-yl]amino]-1,2,4-triazol-4-yl]-4,5,6,7-tetrahydrobenzothiophene-3-carboxamide]: the IC50 was below 1000 nM.
Regarding `Cn1nc(OC(F)F)cc1Nc1nncn1[C@H]1CCc2sc(NC(=O)[C@H]3C[C@@H]3F)c(C(=O)NCC3CC3)c2C1` [Example 313, (5S)—N-(cyclopropylmethyl)-5-[3-[[5-(difluoromethoxy)-2-methyl-pyrazol-3-yl]amino]-1,2,4-triazol-4-yl]-2-[[(1R,2S)-2-fluorocyclopropanecarbonyl]amino]-4,5,6,7-tetrahydrobenzothiophene-3-carboxamide], the IC50 is below 1000 nM.
For `Cn1nc(OC(F)F)cc1Nc1nncn1[C@H]1CCc2sc(NC(=O)[C@H]3C[C@@H]3F)c(C(=O)NC[C@@H]3C[C@@H]3F)c2C1` [Example 322, (5S)-5-[3-[[5-(difluoromethoxy)-2-methylpyrazol-3-yl]amino]-1,2,4-triazol-4-yl]-2-[[(1R,2S)-2-fluorocyclopropanecarbonyl]amino]-N-[[(1S,2S)-2-fluorocyclopropyl]methyl]-4,5,6,7-tetrahydro-1-benzothiophene-3-carboxamide] the value was below 1000 nM; for `Cc1nscc1Nc1nncn1[C@H]1CCc2sc(NC(=O)C3CC34CC4)c(C(=O)NCC3CC3)c2C1` (stereo partly drawn) [Example 329, (5S)—N-(cyclopropylmethyl)-5-[3-[(3-methyl-1,2-thiazol-4-yl)amino]-1,2,4-triazol-4-yl]-2-(spiro[2.2]pentane-2-carbonylamino)-4,5,6,7-tetrahydro-1-benzothiophene-3-carboxamide], below 1000 nM; for `COc1cc(Nc2nncn2[C@H]2CCc3sc(NC(=O)C4CC4)c(C(=O)NCC4CC4)c3C2)n(C)n1` [Example 337, (5S)-2-(cyclopropanecarbonylamino)-N-(cyclopropylmethyl)-5-[3-[(5-methoxy-2-methylpyrazol-3-yl)amino]-1,2,4-triazol-4-yl]-4,5,6,7-tetrahydro-1-benzothiophene-3-carboxamide], below 1000 nM.
`Cn1nc(OC(F)F)cc1Nc1nncn1[C@H]1CCc2sc(NC(=O)[C@H]3C[C@H](F)C3)c(C(=O)NCC3CC3)c2C1` [Example 343, (5S)—N-(cyclopropylmethyl)-5-[3-[[5-(difluoromethoxy)-2-methylpyrazol-3-yl]amino]-1,2,4-triazol-4-yl]-2-[trans-(3-fluorocyclobutanecarbonyl)amino]-4,5,6,7-tetrahydro-1-benzothiophene-3-carboxamide]: the 50% inhibitory concentration (IC50) is below 1000 nM.
Consider `Cn1nc(OC(F)F)cc1Nc1nncn1[C@H]1CCc2sc(NC(=O)C3CC(F)(F)C3)c(C(=O)NCC3CC3)c2C1` [Example 346, (5S)—N-(cyclopropylmethyl)-2-[(3,3-difluorocyclobutanecarbonyl)amino]-5-[3-[[5-(difluoromethoxy)-2-methylpyrazol-3-yl]amino]-1,2,4-triazol-4-yl]-4,5,6,7-tetrahydro-1-benzothiophene-3-carboxamide], for which the half-maximal inhibitory concentration (IC50) is below 1000 nM.
In the case of `Cn1nc(OC(F)F)cc1Nc1nncn1[C@H]1CCc2sc(NC(=O)[C@H]3C[C@@H](F)C3)c(C(=O)NCC3CC3)c2C1` [Example 347, (5S)—N-(cyclopropylmethyl)-5-[3-[[5-(difluoromethoxy)-2-methylpyrazol-3-yl]amino]-1,2,4-triazol-4-yl]-2-[cis-(3-fluorocyclobutanecarbonyl)amino]-4,5,6,7-tetrahydro-1-benzothiophene-3-carboxamide], the IC50 is below 1000 nM.
Turning to `Cn1nc(OC(F)F)cc1Nc1nncn1[C@H]1CCc2sc(NC(=O)C3CC3)c(C(=O)NCC3CC3)c2C1` [Example 351, (5S)-2-(cyclopropanecarbonylamino)-N-(cyclopropylmethyl)-5-[3-[[5-(difluoromethoxy)-2-methylpyrazol-3-yl]amino]-1,2,4-triazol-4-yl]-4,5,6,7-tetrahydro-1-benzothiophene-3-carboxamide], the IC50 is below 1000 nM.
In the case of `C[C@H]1C[C@@H]1C(=O)Nc1sc2c(c1C(=O)NCC1CC1)C[C@@H](n1cnnc1Nc1cc(OC(F)F)nn1C)CC2` [Example 352, (5S)—N-(cyclopropylmethyl)-5-[3-[[5-(difluoromethoxy)-2-methylpyrazol-3-yl]amino]-1,2,4-triazol-4-yl]-2-[[(1S,2S)-2-methylcyclopropanecarbonyl]amino]-4,5,6,7-tetrahydro-1-benzothiophene-3-carboxamide], the IC50 was below 1000 nM.
As for `Cn1nc(C(F)F)cc1Nc1nncn1[C@H]1CCc2sc(NC(=O)C3CC(F)C3)c(C(=O)NCC3CC3)c2C1` (stereo partly drawn) [Example 353, (5S)—N-(cyclopropylmethyl)-5-[3-[[5-(difluoromethyl)-2-methylpyrazol-3-yl]amino]-1,2,4-triazol-4-yl]-2-[(3-fluorocyclobutanecarbonyl)amino]-4,5,6,7-tetrahydro-1-benzothiophene-3-carboxamide], the half-inhibitory concentration (IC50) was below 1000 nM.
On to `Cn1nc(C(F)F)cc1Nc1nncn1[C@H]1CCc2sc(NC(=O)[C@H]3C[C@H](F)C3)c(C(=O)NCC3CC3)c2C1` [Example 354, (5S)—N-(cyclopropylmethyl)-5-[3-[[5-(difluoromethyl)-2-methylpyrazol-3-yl]amino]-1,2,4-triazol-4-yl]-2-[trans-(3-fluorocyclobutanecarbonyl)amino]-4,5,6,7-tetrahydro-1-benzothiophene-3-carboxamide], for which the IC50 was below 1000 nM.
For the compound `Cn1nc(C(F)F)cc1Nc1nncn1[C@H]1CCc2sc(NC(=O)C3COC3)c(C(=O)NCC3CC3)c2C1` [Example 356, N-[(5S)-3-(cyclopropylmethylcarbamoyl)-5-[3-[[5-(difluoromethyl)-2-methylpyrazol-3-yl]amino]-1,2,4-triazol-4-yl]-4,5,6,7-tetrahydro-1-benzothiophen-2-yl]oxetane-3-carboxamide], the IC50 was below 1000 nM.
Take `Cn1nc(C(F)F)cc1Nc1nncn1[C@H]1CCc2sc(NC(=O)C3CC(F)(F)C3)c(C(=O)NCC3CC3)c2C1` [Example 357, (5S)—N-(cyclopropylmethyl)-2-[(3,3-difluorocyclobutanecarbonyl)amino]-5-[3-[[5-(difluoromethyl)-2-methylpyrazol-3-yl]amino]-1,2,4-triazol-4-yl]-4,5,6,7-tetrahydro-1-benzothiophene-3-carboxamide]: the IC50 is below 1000 nM.

The values above are taken from patent US12018021B2 (UCB Biopharma SRL, priority 2018, dated 2024).
